Experimental findings from BindingDB's records for doi:10.1016/s0028-3908(05)80009-7 (Universit&Eacute, 1994) are described below.

SMILES strings stand for the structures.

This experiment has as its target T1, Pituitary adenylate cyclase-activating polypeptide (Rattus norvegicus, UniProt P13589).
T1 sequence (P13589 whole entry): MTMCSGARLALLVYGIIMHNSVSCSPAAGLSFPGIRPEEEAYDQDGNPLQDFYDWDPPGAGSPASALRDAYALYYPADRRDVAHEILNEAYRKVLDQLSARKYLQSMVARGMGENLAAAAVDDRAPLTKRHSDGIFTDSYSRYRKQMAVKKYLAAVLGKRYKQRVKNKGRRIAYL
Turning to `CC[C@H](C)[C@H](NC(=O)CNC(=O)[C@H](CC(=O)O)NC(=O)[C@H](C)NC(=O)[C@@H](N)Cc1cnc[nH]1)C(=O)N[C@@H](Cc1ccccc1)C(=O)N[C@H](C(=O)N[C@@H](CC(=O)O)C(=O)N[C@@H](CO)C(=O)N[C@@H](Cc1ccc(O)cc1)C(=O)N[C@@H](CO)C(=O)N[C@@H](CCCNC(=N)N)C(=O)N[C@@H](Cc1ccc(O)cc1)C(=O)N[C@@H](CCCNC(=N)N)C(=O)N[C@@H](CCCCN)C(=O)N[C@@H](CCC(N)=O)C(=O)N[C@@H](CCSC)C(=O)N[C@@H](C)C(=O)N[C@H](C(=O)N[C@@H](CCCCN)C(=O)N[C@@H](CCCCN)C(=O)N[C@@H](Cc1ccc(O)cc1)C(=O)N[C@@H](CC(C)C)C(=O)N[C@@H](C)C(=O)N[C@@H](C)C(=O)N[C@H](C(=O)N[C@@H](CC(C)C)C(=O)NCC(=O)N[C@@H](CCCCN)C(=O)N[C@@H](CCCNC(=N)N)C(=O)N[C@@H](Cc1ccc(O)cc1)C(=O)N[C@@H](CCCCN)C(=O)N[C@@H](CCC(N)=O)C(=O)N[C@@H](CCCNC(=N)N)C(=O)N[C@H](C(=O)N[C@@H](CCCCN)C(=O)N[C@@H](CC(N)=O)C(=O)N[C@@H](CCCCN)C(N)=O)C(C)C)C(C)C)C(C)C)[C@@H](C)O`, the inhibition constant (Ki) is 0.5 nM. As for `CSCC[C@H](NC(=O)[C@H](CCC(N)=O)NC(=O)[C@H](CCCCN)NC(=O)[C@H](CCCNC(=N)N)NC(=O)[C@H](Cc1ccc(O)cc1)NC(=O)[C@H](CCCNC(=N)N)NC(=O)[C@H](CO)NC(=O)[C@H](Cc1ccc(O)cc1)NC(=O)[C@H](CO)NC(=O)[C@H](CC(=O)O)NC(=O)[C@@H](NC(=O)[C@@H](N)Cc1ccccc1)[C@@H](C)O)C(=O)N[C@@H](C)C(=O)N[C@H](C(=O)N[C@@H](CCCCN)C(=O)N[C@@H](CCCCN)C(=O)N[C@@H](Cc1ccc(O)cc1)C(=O)N[C@@H](CC(C)C)C(=O)N[C@@H](C)C(=O)N[C@@H](C)C(=O)N[C@H](C(=O)N[C@@H](CC(C)C)C(=O)NCC(=O)N[C@@H](CCCCN)C(=O)N[C@@H](CCCNC(=N)N)C(=O)N[C@@H](Cc1ccc(O)cc1)C(=O)N[C@@H](CCCCN)C(=O)N[C@@H](CCC(N)=O)C(=O)N[C@@H](CCCNC(=N)N)C(=O)N[C@H](C(=O)N[C@@H](CCCCN)C(=O)N[C@@H](CC(N)=O)C(=O)N[C@@H](CCCCN)C(N)=O)C(C)C)C(C)C)C(C)C`, the figure is 2 nM; as for `[C][C][C]([C])[C@H]([N]C(=O)[C][N]C(=O)[C@H]([C][C]C([O])=O)[N]C(=O)[C@@H]([N])[C][O])C(=O)[N][C@@H]([C]c1ccccc1)C(=O)[N][C@H](C(=O)[N][C@@H]([C]C([O])=O)C(=O)[N][C@@H]([C][O])C(=O)[N][C@@H]([C]c1ccc([O])cc1)C(=O)[N][C@@H]([C][O])C(=O)[N][C@@H]([C][C][C]N=C([N])[N])C(=O)[N][C@@H]([C]c1ccc([O])cc1)C(=O)[N][C@@H]([C][C][C]N=C([N])[N])C(=O)[N][C@@H]([C][C][C][C][N])C(=O)[N][C@@H]([C][C]C([N])=O)C(=O)[N][C@@H]([C][C]S[C])C(=O)[N][C@@H]([C])C(=O)[N][C@@H]([C]([C])[C])C(=O)[N][C@@H]([C][C][C][C][N])C(=O)[N][C@@H]([C][C][C][C][N])C(=O)[N][C@@H]([C]c1ccc([O])cc1)C(=O)[N][C@@H]([C][C]([C])[C])C(=O)[N][C@@H]([C])C(=O)[N][C@@H]([C])C(=O)[N][C@@H]([C]([C])[C])C(=O)[N][C@@H]([C][C]([C])[C])C([N])=O)[C@@H]([C])[O]` [PACAP(2-27)], 30 nM.
